Structures are written as SMILES.

This experiment has as its target T1, CLC-3 Cl^− channels (neonatal mouse hippocampal CA3 pyramidal neurons) (Mus musculus, UniProt P51791).
T1 construct: gene Clcn3; native channel, CA3 pyramidal neurons in hippocampal slices (P10-12); current largely absent in Clcn3-/- neurons
T1 sequence (P51791 1-818): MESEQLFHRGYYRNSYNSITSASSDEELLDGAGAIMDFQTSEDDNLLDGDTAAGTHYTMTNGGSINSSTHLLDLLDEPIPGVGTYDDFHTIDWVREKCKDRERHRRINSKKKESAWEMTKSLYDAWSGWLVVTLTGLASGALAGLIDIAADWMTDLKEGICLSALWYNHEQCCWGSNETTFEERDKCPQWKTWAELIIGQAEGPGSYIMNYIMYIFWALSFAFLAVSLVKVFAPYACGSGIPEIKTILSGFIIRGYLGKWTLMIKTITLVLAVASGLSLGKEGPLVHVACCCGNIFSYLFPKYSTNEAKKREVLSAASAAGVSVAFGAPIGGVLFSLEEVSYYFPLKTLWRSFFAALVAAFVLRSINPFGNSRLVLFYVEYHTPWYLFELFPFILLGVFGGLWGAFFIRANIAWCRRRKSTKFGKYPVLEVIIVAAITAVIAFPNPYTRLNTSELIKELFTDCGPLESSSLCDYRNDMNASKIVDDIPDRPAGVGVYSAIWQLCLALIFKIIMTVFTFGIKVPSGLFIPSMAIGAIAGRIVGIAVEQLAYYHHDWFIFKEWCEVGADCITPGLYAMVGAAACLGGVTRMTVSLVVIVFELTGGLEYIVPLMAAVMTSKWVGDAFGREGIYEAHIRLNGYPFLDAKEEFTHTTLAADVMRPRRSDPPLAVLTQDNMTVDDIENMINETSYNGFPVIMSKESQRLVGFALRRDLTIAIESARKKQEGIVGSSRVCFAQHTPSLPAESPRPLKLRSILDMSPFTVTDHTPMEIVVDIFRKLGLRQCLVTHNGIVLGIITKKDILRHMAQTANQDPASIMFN
The experiment in a line: whole-cell patch clamp, voltage-dependent Cl- current in brain slices. The conditions noted are these: total neuronal Cl- current, no knockout control told.

As a reminder, the IC50 is the concentration at which inhibition is half-maximal. A high value points to a need for much substance. Turning to `C[C@@H](O)CC(=O)O` [β-HB], the IC50 is about 6.2 mM.
